Reference: PMC8220418, “A fragment-based approach to assess the ligandability of ArgB, ArgC, ArgD and ArgF in the L-arginine biosynthetic pathway of Mycobacterium tuberculosis” (Computational and Structural Biotechnology Journal, 2021)
Converted amounts (≈) assume the structure as drawn. Read-outs that look alike come from different tables or passages of the source.

Assays:
ArgB [1] = biological target: T1, ArgB (Mycobacterium tuberculosis, UniProt P9WQ01); assay: Differential scanning fluorimetry (DSF) fragment screening against ArgB; type: binding; details: known ligands (positive controls); 1 mM for ATP, N-acetyl-glutamate, L-arginine
Experimental: (§1) Fragment screening was carried out in a 96-well PCR plate using a CFX Connect Real-time PCR Detection System (Bio-Rad) for DSF. For ArgB, each 25 μL reaction mixture contained 10 µM ArgB, 100 mM HEPES (pH 7.5), 200 mM NaCl, 5x SYPRO Orange, 5% DMSO (v/v), and fragments at 5 mM. For ArgF each 25 μL reaction mixture contained 5 µM ArgF, 25 mM Tris-HCl (pH 8.0), 150 mM NaCl, 5x SYPRO Orange dye, 5 mM fragments and 5% DMSO (v/v). For ArgC and ArgD, the 25 μL reaction volume consisted of the following: 2.5 μM ArgC/5 μM ArgD, 100 mM sodium phosphate pH 7, 200 mM NaCl, 5x SYPRO Orange, and 5 mM fragments (960 fragment library). The protocol implemented increased temperature by 0.5 °C after every 30 s, going from 25 °C to 95 °C and measuring SYPRO Orange fluorescence for each temperature cycle. The melt curve RFU (relative fluorescence units) and derivative -d(RFU)/dT values were analysed and plotted using a macros-enabled Excel Workbook: the minima of the melt curves were recorded as the melting temperature (Tm) of the enzymes in the presence of each fragment. The Tm of the reference control (protein in the presence of DMSO) was subtracted from all the readings to calculate ΔTm.

ArgB [2] = biological target: T1, ArgB; assay: biochemical; type: binding; details: ITC Kd, six-site sequential binding model, 25 °C, sequential binding, six-site model
ArgB [3] = biological target: T1, ArgB; assay: ArgB enzymatic assay (ADP release coupled to NADH oxidation, pyruvate kinase/lactate dehydrogenase); type: biochemical; details: IC50, 0.5 µM ArgB, 0.3 mM ATP, 1.25 mM NAG, 10% DMSO
Experimental: ArgB activity was assessed by a colorimetric assay that followed the release of ADP by measuring the oxidation of NADH at 340 nm, for 30 min, in the presence of pyruvate kinase and lactate dehydrogenase in a PHERAstar plate-reader (BMG-Labtech). […]. Inhibitors were also individually screened against the coupled enzymes to eliminate any compounds interfering with the other assay components. Competition assays were performed in the same conditions using 0.3 mM of ATP or NAG and varying the other substrate concentration.

M. tuberculosis H37Rv = assay: microbe, parasite or virus in culture; type: cell-based, Mycobacterium tuberculosis
M. tuberculosis ΔargB-c = assay: microbe, parasite or virus in culture; type: cell-based, Mycobacterium tuberculosis
[4] = tested on: M. tuberculosis MDR strain V2475; assay: microbe, parasite or virus in culture; type: cell-based, Mycobacterium tuberculosis; details: Mycobacterium tuberculosis
ArgF = ArgF (Mycobacterium tuberculosis, UniProt P9WIT9); assay: biochemical; type: binding; details: natural ligands at 1 mM
Experimental: Fragment screening was carried out in a 96-well PCR plate using a CFX Connect Real-time PCR Detection System (Bio-Rad) for DSF. […] For ArgF each 25 μL reaction mixture contained 5 µM ArgF, 25 mM Tris-HCl (pH 8.0), 150 mM NaCl, 5x SYPRO Orange dye, 5 mM fragments and 5% DMSO (v/v). […] The protocol implemented increased temperature by 0.5 °C after every 30 s, going from 25 °C to 95 °C and measuring SYPRO Orange fluorescence for each temperature cycle. The melt curve RFU (relative fluorescence units) and derivative -d(RFU)/dT values were analysed and plotted using a macros-enabled Excel Workbook: the minima of the melt curves were recorded as the melting temperature (Tm) of the enzymes in the presence of each fragment. The Tm of the reference control (protein in the presence of DMSO) was subtracted from all the readings to calculate ΔTm.

ArgC [5] = biological target: T2, ArgC (Mycobacterium tuberculosis, UniProt P9WPZ9); assay: Differential scanning fluorimetry (DSF) fragment screening against ArgC; type: binding; details: for DSF ΔTm: 1 mM co-factor, average across all DSF runs; for ΔTm at 5000 µM: fragments at 5 mM, 2.5 μM ArgC
Experimental: as §1

ArgC [6] = biological target: T2, ArgC; assay: Surface plasmon resonance with immobilised ArgC; type: binding
Experimental: Low molecular weight (LMW) screening with the DSF fragment hits was carried out using the T200 Biacore instrument (GE Healthcare Life Sciences). A series S CM5 sensor chip (GE Healthcare Life Sciences) was used for the immobilisation of ArgC on the carboxymethylated dextran matrix through amine coupling. A 25 μg/mL ArgC dilution was prepared in the optimal coupling buffer (sodium acetate pH 5), and immobilisation was performed by manual instructions. The immobilised ArgC was tested using dilution series (19 μM to 2.5 mM) of NADP^+ and NADPH. 50 mM fragment DMSO stocks were used to prepare 1 mM dilutions in the SPR buffer consisting of 10 mM sodium phosphate pH 7.0, 150 mM NaCl and 2% DMSO (v/v). Each NADP^+/NADPH and fragment dilution was injected once at a flow rate of 30 μL/min for a contact time of 30 s, SPR Running buffer (10 mM sodium phosphate pH 7.0 and 150 mM NaCl) was passed for 320 s at the same flow rate, and 50% DMSO v/v (diluted in SPR running buffer) was injected at the end of the cycle to remove undissociated analyte. Solvent correction was carried out to account for DMSO mismatch between the analyte dilutions and the SPR running buffer.
The fragment hits obtained previously were injected at a concentration of 1 mM. The sensorgrams for all the analytes were inspected visually to exclude fragments with either no discernible response or a “sticky” profile from further analysis (representative sensorgrams for fragment binders are shown in Fig. S2a and b). The binding level was calculated using the T200 software and adjusted for molecular weights of the analytes (Fig. S2c and d). For ArgC, 22 fragments with a binding level response ≥20 RU were shortlisted, whereas in the case of ArgD, 20 fragments with a response ≥10 RU were shortlisted for crystallographic validation. Fragments were thereafter described either as SPR ‘positive’ or ‘negative’.

ArgC [7] = biological target: T2, ArgC; assay: X-ray crystallography of ArgC soaked with fragments (binding site); details: crystal soaking
Experimental: ArgC crystals grown in pH 5.5 were first soaked in 1.5 µL drops containing the mother liquor and 5 mM NADP^+ for 2 h in hanging drops that were equilibrated against a reservoir of 500 µL. Thereafter, the crystals were transferred to drops containing the crystallisation condition and an SPR-validated fragments (20 mM, 10% DMSO), which were equilibrated against 500 µL of mother liquor also containing a corresponding percentage of DMSO overnight at 19 °C. ArgC crystals grown in pH 7 were soaked with 5 mM NADP^+ only for 5–10 min due to the rapid development of cracks, and transferred to the fragment soaking drops for 5–10 min from where they were fished and frozen.
X-ray diffraction data (single-wavelength anomalous diffraction) were collected on beamlines i02, i03, i04, i04-1 and i24 at the Diamond Light Source (DLS), UK and on id30B at The European Synchrotron Radiation Facility (ESRF). Diffraction data were processed and reduced with autoPROC from Global Phasing Limited or Xia2 [31]. The apo-form of ArgB was crystallised in the R3_2 space group with one protomer per asymmetric unit (ASU) and the ArgB:NAG complex in the P6_3 space group with two protomers per ASU. ArgF was crystallized in the P2_1 space group with 6 protomers in the ASU. ArgC was crystallised in C2 and P2_1 space groups, with 2 and 4/8 protomers per ASU respectively. ArgD was crystallised in the P2_1 space group as well but with 4 protomers in the ASU.
Initial phases were determined with PHASER [32] from PHENIX software package using the M. tuberculosis ArgB structure (PDB: 2AP9), M. tuberculosis ArgF structure (PDB: 2P2G), M. tuberculosis ArgC structure (PDB: 2I3G) and E. coli Succinyl-ornithine transaminase (AstC, 42% sequence identity, PDB: 4ADB) as a search models, respectively for ArgB, ArgF, ArgC and ArgD. Model building was done with Coot, and refinement was performed in PHENIX [33], [35] for ArgB, ArgF, and ArgC. For ArgD, after the initial molecular replacement solution and a single cycle of refinement, PHENIX AutoBuild was used to generate a model for M. tuberculosis ArgD that was then refined with Coot and PHENIX. Structure validation was performed using Coot and PHENIX tools, [34]. All figures were prepared with PyMOL (The PyMOL Molecular Graphics System, Version 2.0 Schrodinger, LLC).

ArgC [8] = biological target: T2, ArgC; assay: ArgC enzymatic assay (NADPH oxidation at 340 nm); type: biochemical; details: 2 mM fragment, 3.5 μM ArgC, 2.5% DMSO
Experimental: To synthesise the ArgC substrate, a reaction mixture containing 3 μM ArgB, 1 mM NAG and 1 mM ATP in 50 mM Tris-HCl pH 7.5, 100 mM NaCl and 40 mM MgCl2 was made and the reaction was allowed to proceed for 1–1.5 h at room temperature. Thereafter, 100 μL of the ArgC reaction mixture consisting of 50 mM Tris-HCl pH 7.5, 100 mM NaCl and 0.6 mM NADPH (concentration in 200 μL), was added to each well together with 100 μL of the ArgB reaction mixture and followed for 30 min at 35 °C by measuring the oxidation of NADPH at 340 nm. Controls with only NADPH, 2.5% DMSO (v/v) and no ArgC, as well as only NADPH, 4 mM fragment and no ArgC were prepared. Baseline ArgC activity was assayed with and without DMSO, the effect of 2.5% and 5% DMSO on enzymatic activity was also tested. […] All conditions were prepared in triplicates. 3.5 μM ArgC was added just before measurements were started.

ArgD = ArgD (Mycobacterium tuberculosis, UniProt P9WPZ7); assay: Differential scanning fluorimetry (DSF) against ArgD; type: binding
[9] = fragments at 1 mM, adjusted for molecular weight

T2 sequence (P9WPZ9 whole entry, the tested form may be a part): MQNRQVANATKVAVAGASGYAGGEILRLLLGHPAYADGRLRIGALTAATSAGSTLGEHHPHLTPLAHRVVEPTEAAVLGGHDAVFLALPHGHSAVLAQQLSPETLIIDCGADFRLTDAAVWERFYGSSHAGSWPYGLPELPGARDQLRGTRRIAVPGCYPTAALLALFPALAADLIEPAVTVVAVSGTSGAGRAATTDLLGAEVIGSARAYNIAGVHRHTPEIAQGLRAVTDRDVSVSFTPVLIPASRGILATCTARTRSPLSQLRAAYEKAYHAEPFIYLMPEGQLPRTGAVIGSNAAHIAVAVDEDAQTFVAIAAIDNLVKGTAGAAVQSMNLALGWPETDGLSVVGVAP
Sequence of ArgD (P9WPZ7 whole entry, the tested form may be a part): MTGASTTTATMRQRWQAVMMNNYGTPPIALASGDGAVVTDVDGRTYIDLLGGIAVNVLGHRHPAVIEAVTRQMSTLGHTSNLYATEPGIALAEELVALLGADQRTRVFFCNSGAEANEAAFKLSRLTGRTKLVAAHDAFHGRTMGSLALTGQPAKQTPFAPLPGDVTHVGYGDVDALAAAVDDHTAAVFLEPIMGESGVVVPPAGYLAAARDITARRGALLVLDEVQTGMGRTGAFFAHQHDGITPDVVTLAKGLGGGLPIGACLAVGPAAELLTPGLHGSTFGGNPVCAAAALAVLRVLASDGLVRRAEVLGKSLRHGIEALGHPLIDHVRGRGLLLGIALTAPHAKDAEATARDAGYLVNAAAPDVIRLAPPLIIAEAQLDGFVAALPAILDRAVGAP
Sequence of ArgF (P9WIT9 whole entry, the tested form may be a part): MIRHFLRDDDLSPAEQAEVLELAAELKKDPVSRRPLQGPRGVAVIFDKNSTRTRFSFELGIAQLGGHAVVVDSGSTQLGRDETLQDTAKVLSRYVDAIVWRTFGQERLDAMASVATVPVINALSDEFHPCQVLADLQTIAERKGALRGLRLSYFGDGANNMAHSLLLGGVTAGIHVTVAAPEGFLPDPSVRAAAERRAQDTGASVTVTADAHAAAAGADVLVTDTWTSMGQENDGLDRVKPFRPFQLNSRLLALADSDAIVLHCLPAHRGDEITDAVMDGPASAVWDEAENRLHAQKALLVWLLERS

Nc1ncnc2c1ncn2[C@@H]1O[C@H](COP(=O)(O)OP(=O)(O)OP(=O)(O)O)[C@@H](O)[C@H]1O [ATP]
DSF ΔTm (ArgB [1]): +2.0 °C

N=C(N)NCCC[C@H](N)C(=O)O [L-arginine]
ΔTm at 1000 µM (ArgB [1]): 11.8 °C | Kd (ArgB [2]; 1st value): 4.5 µM | Kd (ArgB [2]; 2nd value): 4.8 µM | Kd (ArgB [2]; 3rd value): 6.1 µM | Kd (ArgB [2]; 4th value): 9.4 µM | Kd (ArgB [2]; 5th value): 12.9 µM | Kd (ArgB [2]; 6th value): 42 µM | IC50 (ArgB [3]): 146 ± 1 µM

NC(N)=NOCC[C@H](N)C(=O)O [L-canavanine, reference compound]
ΔTm at 1000 µM (ArgB [1]): 7.2 °C | Kd (ArgB [2]; 1st value): 4.5 µM | Kd (ArgB [2]; 2nd value): 4.8 µM | Kd (ArgB [2]; 3rd value): 6.4 µM | Kd (ArgB [2]; 4th value): 34 µM | Kd (ArgB [2]; 5th value): 35 µM | Kd (ArgB [2]; 6th value): 137 µM | IC50 (ArgB [3]): 1460 ± 2 µM | MIC (M. tuberculosis H37Rv; Mycobacterium tuberculosis, media without arginine): 50 µg/mL (≈ 284 µM) | Inhibitory activity on growth with arginine present (M. tuberculosis H37Rv; arginine (1 mM) in the media): no inhibitory activity | Inhibitory activity on growth with arginine present (M. tuberculosis ΔargB-c): no inhibitory activity | MIC (M. tuberculosis ΔargB-c; Mycobacterium tuberculosis): 50 µg/mL (≈ 284 µM) | MIC [4]: > 200 µg/mL

NC(=O)NCCC[C@H](N)C(=O)O [L-citruline, L-citrulline, reference compound]
ΔTm at 1000 µM (ArgF; read-out: DSF ΔTm): 1 °C

NCCC[C@H](N)C(=O)O [L-ornithine, reference compound]
DSF ΔTm (ArgF): 1.5 °C

NC(=O)c1ccc[n+]([C@@H]2O[C@H](COP(=O)([O-])OP(=O)(O)OC[C@H]3O[C@@H](n4cnc5c(N)ncnc54)[C@H](OP(=O)(O)O)[C@@H]3O)[C@@H](O)[C@H]2O)c1 [NADP, reference compound]
DSF ΔTm (ArgC [5]): +0.6 °C | DSF ΔTm (ArgC [5]; listed as NADP^+): ~ 0.6 °C | SPR Binding Response (ArgC [6]; 1.25 mM): 19.5 (1.25 mM) RU | Binding site (X-ray) (ArgC [7]): Co-factor

NC(=O)C1=CN([C@@H]2O[C@H](COP(=O)(O)OP(=O)(O)OC[C@H]3O[C@@H](n4cnc5c(N)ncnc54)[C@H](OP(=O)(O)O)[C@@H]3O)[C@@H](O)[C@H]2O)C=CC1 [NADPH, reference compound]
DSF ΔTm (ArgC [5]): −0.9 °C | SPR Binding Response (ArgC [6]; 1.25 mM): 16.3 (1.25 mM) RU | Binding site (X-ray) (ArgC [7]): Co-factor

CC(=O)N[C@@H](CCC(=O)O)C(=O)O [NAG, N-acetyl-L-glutamic acid]
ΔTm at 1000 µM (ArgB [1]): 8.6 °C

COc1ccc2[nH]cc(CC(=O)O)c2c1 [NMR322, 5-Methoxy-3-indoleacetic acid]
ΔTm at 5000 µM (ArgC [5]): 3.1 °C | SPR Binding Response (ArgC [6]; [9]): 80.5 RU | Binding site (X-ray) (ArgC [7]): Substrate | inhibition at 2000 µM (ArgC [8]): 45%

Nc1ccc(Oc2ccccc2)nc1 [NMR401, 6-phenoxy-3-pyridinamine]
ΔTm at 5000 µM (ArgC [5]): 4.8 °C | SPR Binding Response (ArgC [6]; [9]): 36.7 RU | Binding site (X-ray) (ArgC [7]): Co-factor | inhibition at 2000 µM (ArgC [8]): 10%

O=C(O)C1c2ccccc2Oc2ccccc21 [NMR571, Xanthene-9-carboxylic acid]
ΔTm at 5000 µM (ArgC [5]): 3.1 °C | SPR Binding Response (ArgC [6]; [9]): 78.0 RU | Binding site (X-ray) (ArgC [7]): Substrate | inhibition at 2000 µM (ArgC [8]): 37%

COc1ccc2oc(C(=O)O)nc2c1 [NMR863, 5-methoxy-1,3-benzoxazole-2-carboxylic acid]
ΔTm at 5000 µM (ArgC [5]): 5 °C | SPR Binding Response (ArgC [6]; [9]): 41.6 RU | Binding site (X-ray) (ArgC [7]): Co-factor | inhibition at 2000 µM (ArgC [8]): 12%

Cc1ncc(COP(=O)(O)O)c(C=O)c1O [PLP, pyridoxal-5′-phosphate]
Melting temperature of ArgD after addition of PLP (ArgD): 79 °C | ΔTm at 1000 µM (ArgD; PLP (1 mM), PLP-unsaturated ArgD): 13 °C | Melting temperature of ArgD after addition of PLP (ArgD; PLP-unsaturated ArgD + 1 mM PLP): 77.5 °C
